Results reported in PubChem BioAssay (NCI).
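All cell lines were grown in 96-well plates and treated with compound for 48 hours. Here, GI50 denotes the concentration required for 50% inhibition of growth. Definition used: TGI = concentration required for complete inhibition of growth.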

Columns and labels:
Experiment in all cases: inhibition of tumour cell growth, NCI panel, 48 h
[1] = tested on: EKVX NSCLC
[2] = tested on: HT29 colon
[3] = tested on: K-562 leukemia
[4] = tested on: MALME-3M melanoma
[5] = tested on: OVCAR-3 ovarian
[6] = tested on: SF-539 CNS
[7] = tested on: SK-OV-3 ovarian
[8] = tested on: SR leukemia
[9] = tested on: SW-620 colon
[10] = tested on: TK-10 renal

COc1ccccc1NC(=O)C1=C(C)NC(C)=C(C(=O)Nc2ccccc2OC)C1c1ccc(C(C)C)cc1
TGI [1]: > 100 µM
TGI [2]: > 100 µM
TGI [3]: > 1 µM
TGI [4]: > 100 µM
TGI [5]: > 100 µM
TGI [6]: > 100 µM
TGI [7]: > 100 µM
TGI [8]: > 100 µM
TGI [9]: > 100 µM
TGI [10]: > 100 µM

CC(C)(C)c1cc(C(O)(C(F)(F)F)C(F)(F)F)c2c(c1)C(C(F)(F)F)(C(F)(F)F)OC(c1ccccc1)(C(C)(C)C)N2 (configuration not stated)
TGI [1]: 17.5 µM
TGI [2]: 14.4 µM
TGI [3]: 11.6 µM
TGI [4]: 27.6 µM
TGI [5]: 12.4 µM
TGI [6]: > 100 µM
TGI [7]: 7.39 µM
TGI [8]: 6.69 µM
TGI [9]: 16.7 µM
TGI [10]: 14.2 µM

COc1nc2c(nc(N)n2C2OC(CO)C(O)C(O)C2O)c(=O)n1C (configuration not stated)
TGI [1]: > 100 µM
TGI [2]: > 100 µM
TGI [3]: > 100 µM
TGI [4]: > 100 µM
TGI [5]: > 100 µM
TGI [6]: > 100 µM
TGI [7]: > 100 µM
TGI [8]: > 100 µM
TGI [9]: > 100 µM
TGI [10]: > 100 µM

Nc1nc(Cl)nc2c1ncn2C1O[C@H](CO)[C@@H](O)[C@@H]1F (some centres not stated)
GI50 [1]: 1.51 µM
TGI [1]: > 100 µM
TGI [2]: > 100 µM
GI50 [3]: 3.79 µM
TGI [3]: > 100 µM
GI50 [4]: 43.4 µM
TGI [4]: > 100 µM
GI50 [5]: > 100 µM
TGI [5]: > 100 µM
GI50 [6]: 3.64 µM
TGI [6]: > 37.9 µM
GI50 [7]: 0.761 µM
TGI [7]: > 100 µM
GI50 [8]: 0.387 µM
TGI [8]: > 100 µM
GI50 [9]: 0.888 µM
TGI [9]: > 100 µM
TGI [10]: > 100 µM

CC(C)(C)c1ccc(-c2nnc(SCc3ccc(Cl)cc3)n2-c2cccc(C(F)(F)F)c2)cc1
TGI [1]: 81.9 µM
TGI [2]: > 100 µM
TGI [3]: > 100 µM
TGI [4]: > 100 µM
TGI [5]: 16.8 µM
TGI [6]: > 100 µM
TGI [7]: > 100 µM
TGI [8]: 31.5 µM
TGI [9]: > 100 µM
TGI [10]: > 100 µM

O=C(CC1C(=O)Nc2ccccc2S1=O)Nc1cccc(Cl)c1 (configuration not stated)
TGI [1]: > 87.4 µM
TGI [2]: > 55.1 µM
TGI [3]: 29.2 µM
TGI [4]: > 84.4 µM
TGI [5]: > 79.2 µM
TGI [6]: 43.7 µM
TGI [7]: > 100 µM
TGI [8]: 22.1 µM
TGI [9]: > 100 µM
TGI [10]: > 100 µM

Cc1cc(Cl)ccc1N1C(=O)C(=O)C(c2nc3ccccc3s2)C(=O)C1=O
TGI [1]: > 100 µM
TGI [2]: > 100 µM
TGI [3]: > 100 µM
TGI [4]: > 100 µM
TGI [5]: > 100 µM
TGI [6]: > 100 µM
TGI [7]: > 100 µM
TGI [8]: > 100 µM
TGI [9]: > 100 µM
TGI [10]: > 100 µM

C/C=C/C1(NS(=O)(=O)c2ccc(C)cc2)CCC(C(C)(C)C)CC1 (configuration not stated)
TGI [1]: 64.5 µM
TGI [2]: 37.9 µM
TGI [3]: 99.5 µM
TGI [4]: 49.4 µM
TGI [5]: 34.9 µM
TGI [6]: 44.1 µM
TGI [7]: 81.5 µM
TGI [8]: 32.9 µM
TGI [9]: 67.3 µM
TGI [10]: 94.6 µM

Cc1cccc(C)c1NC(=O)C(=O)C1C(=O)N(c2ccccc2)N=C1N (configuration not stated)
TGI [1]: > 100 µM
TGI [2]: > 100 µM
TGI [3]: > 100 µM
TGI [4]: > 100 µM
TGI [5]: > 100 µM
TGI [6]: > 100 µM
TGI [7]: > 100 µM
TGI [8]: > 100 µM
TGI [9]: > 100 µM
TGI [10]: > 100 µM

C=C1C(=O)O[C@H]2[C@H]1CC/C(Cn1cc(CCC)nn1)=C\CC[C@@]1(C)O[C@@H]21
GI50 [1]: 11.5 µM
TGI [1]: 23.6 µM
GI50 [2]: 5.5 µM
TGI [2]: 18.2 µM
GI50 [3]: 3.96 µM
TGI [3]: 29.8 µM
GI50 [4]: 4.7 µM
TGI [4]: 18.4 µM
GI50 [5]: 3.96 µM
TGI [5]: 14 µM
GI50 [6]: 8.87 µM
TGI [6]: 22.5 µM
GI50 [7]: 26 µM
TGI [7]: 68.5 µM
GI50 [8]: 2.88 µM
TGI [8]: 26.1 µM
GI50 [9]: 4.23 µM
TGI [9]: 14.4 µM
GI50 [10]: 3.86 µM
TGI [10]: 14.6 µM

COc1cc2c(/C=C3\C(=O)Nc4ccc(Br)cc43)c(Cl)n(C)c2cc1C
GI50 [1]: 3.76 µM
TGI [1]: 34.1 µM
GI50 [2]: 1.98 µM
TGI [2]: 6.83 µM
GI50 [3]: 1.96 µM
TGI [3]: > 29.2 µM
GI50 [4]: 2.75 µM
TGI [4]: 10 µM
GI50 [5]: 1.56 µM
TGI [5]: 3.56 µM
GI50 [6]: 1 µM
TGI [6]: 4.71 µM
GI50 [7]: 3.87 µM
TGI [7]: 18.6 µM
GI50 [8]: 1.42 µM
GI50 [9]: 3.09 µM
TGI [9]: 15.4 µM
GI50 [10]: 2.72 µM
TGI [10]: 9.19 µM
